These results are taken from patent US12479830B2, “Homopiperazinyl and homopiperidinyl quinazolin-4(3H)-one derivatives having multimodal activity against pain” (ESTEVE PHARMACEUTICALS, S.A., priority 2019, dated 2025).

The Ki is the equilibrium dissociation constant of an inhibitor or competing ligand from its target.

Some results are limits rather than exact numbers.

Test [1] deals with Human α2δ-1 subunit of Cav2.2 calcium channel (Homo sapiens, UniProt P54289). Briefly: Human α2δ-1 subunit of Cav2.2 calcium channel assay ([3H]-gabapentin binding). Conditions: binding to the α2δ-1 subunit of voltage-gated calcium channels, expressed as Ki class; + also covers inhibition between 1% and 50%. A digest of the protocol: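 Human α2δ-1 enriched membranes (2.5 μg) incubated 60 min at 27° C. with 15 nM [3H]-gabapentin in 10 mM Hepes-KOH pH 7.4; non-specific binding with 10 μM pregabalin. Filtration binding; % inhibition at 1 or 10 μM, or Ki from five concentrations.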
Chain of Human α2δ-1 subunit of Cav2.2 calcium channel (P54289 25-1103): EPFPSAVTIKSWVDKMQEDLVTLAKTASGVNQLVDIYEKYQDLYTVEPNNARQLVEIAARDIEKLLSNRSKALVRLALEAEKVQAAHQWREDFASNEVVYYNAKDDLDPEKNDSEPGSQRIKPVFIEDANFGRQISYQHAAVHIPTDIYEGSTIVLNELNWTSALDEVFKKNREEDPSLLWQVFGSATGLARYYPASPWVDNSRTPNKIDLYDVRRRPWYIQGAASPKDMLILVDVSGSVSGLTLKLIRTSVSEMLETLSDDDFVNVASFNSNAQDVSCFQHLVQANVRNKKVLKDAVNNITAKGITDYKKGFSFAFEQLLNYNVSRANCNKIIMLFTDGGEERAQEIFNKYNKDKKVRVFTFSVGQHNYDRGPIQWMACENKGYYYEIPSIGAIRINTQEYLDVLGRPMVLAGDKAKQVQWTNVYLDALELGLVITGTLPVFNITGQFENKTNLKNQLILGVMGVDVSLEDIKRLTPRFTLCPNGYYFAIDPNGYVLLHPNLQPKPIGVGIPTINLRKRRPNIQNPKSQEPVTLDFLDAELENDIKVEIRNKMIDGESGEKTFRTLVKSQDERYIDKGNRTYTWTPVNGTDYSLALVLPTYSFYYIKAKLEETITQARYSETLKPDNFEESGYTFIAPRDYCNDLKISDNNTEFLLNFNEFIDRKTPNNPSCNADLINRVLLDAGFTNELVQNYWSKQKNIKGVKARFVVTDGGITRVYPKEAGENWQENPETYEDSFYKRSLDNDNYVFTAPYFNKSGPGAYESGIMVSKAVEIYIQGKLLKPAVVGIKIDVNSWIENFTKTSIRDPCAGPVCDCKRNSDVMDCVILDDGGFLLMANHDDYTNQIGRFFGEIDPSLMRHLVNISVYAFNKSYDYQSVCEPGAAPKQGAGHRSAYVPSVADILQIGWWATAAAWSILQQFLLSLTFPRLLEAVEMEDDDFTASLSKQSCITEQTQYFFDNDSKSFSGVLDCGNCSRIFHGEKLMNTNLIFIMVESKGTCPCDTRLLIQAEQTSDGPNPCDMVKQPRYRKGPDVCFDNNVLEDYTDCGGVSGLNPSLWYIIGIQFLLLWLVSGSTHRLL

The target of another test is T1, Human σ1 receptor (Homo sapiens, UniProt Q99720).
T1 construct: expressed in transfected cells; host or cells: HEK-293
T1 sequence (Q99720 whole entry): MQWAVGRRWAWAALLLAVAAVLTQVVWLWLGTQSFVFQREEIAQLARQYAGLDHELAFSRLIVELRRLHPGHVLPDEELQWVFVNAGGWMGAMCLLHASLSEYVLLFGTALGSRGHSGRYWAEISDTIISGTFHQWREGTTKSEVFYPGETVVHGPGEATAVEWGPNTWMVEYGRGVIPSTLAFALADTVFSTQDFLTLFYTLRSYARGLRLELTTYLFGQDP
Description: Human σ1 receptor radioligand assay ([3H](+)-pentazocine binding). Conditions: binding to the σ1 receptor, expressed as Ki class; + also covers inhibition between 1% and 50%. A digest of the protocol:
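Membranes (7 μg) were incubated with 5 nM [3H](+)-pentazocine in 50 mM Tris-HCl pH 8 for 120 min at 37° C. Non-specific binding was defined with 10 μM haloperidol. Values are % inhibition at 1 or 10 μM or Ki from five concentrations, read by filtration and scintillation counting.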

On to `CCC[C@H](c1nc2ncc(F)cc2c(=O)n1CC1CC1)N1CCN[C@@H](C)CC1` [Example 195, 3-(cyclopropylmethyl)-6-fluoro-2-((R)-1-((S)-5-methyl-1,4-diazepan-1-yl)butyl)pyrido[2,3-d]pyrimidin-4(3H)-one], for which the Ki in test [1] is below 500 nM; at Human σ1 receptor, above 1000 nM.

Consider `CCC[C@H](c1nc2ncc(F)cc2c(=O)n1CC1CC1)N1CCN[C@H](C)CC1` [Example 196, 3-(cyclopropylmethyl)-6-fluoro-2-((R)-1-((R)-5-methyl-1,4-diazepan-1-yl)butyl)pyrido[2,3-d]pyrimidin-4(3H)-one], for which the Ki is below 500 nM in test [1] and above 1000 nM at Human σ1 receptor.

As to `CCC[C@H](c1nc2ncc(Br)cc2c(=O)n1CC)N1CCNC[C@H](C)C1` [Example 197, 6-bormo-3-ethyl-2-((R)-1-((S)-6-methyl-1,4-diazepan-1-yl)butyl)pyrido[2,3-d]pyrimidin-4(3H)-one], the results for the Ki (in test [1]; at Human σ1 receptor) were below 500 nM and above 1000 nM, respectively.

On to `CCC[C@@H](c1nc2ncc(Br)cc2c(=O)n1CC)N1CCNC[C@@H](C)C1` [Example 198, 6-bromo-3-ethyl-2-((S)-1-((R)-6-methyl-1,4-diazepan-1-yl)butyl)pyrido[2,3-d]pyrimidin-4(3H)-one], for which the values for the Ki (in test [1]; on Human σ1 receptor) were above 5000 nM and above 1000 nM, respectively.

For the compound `CCC[C@H](c1nc2ncc(Br)cc2c(=O)n1CC)N1CCNC[C@@H](C)C1` [Example 199, 6-bromo-3-ethyl-2-((R)-1-((R)-6-methyl-1,4-diazepan-1-yl)butyl)pyrido[2,3-d]pyrimidin-4(3H)-one], the Ki was below 500 nM in test [1] and above 1000 nM at Human σ1 receptor.

Regarding `CCC[C@@H](c1nc2ncc(Br)cc2c(=O)n1CC)N1CCNC[C@H](C)C1` [Example 200, 6-bromo-3-ethyl-2-((S)-1-((S)-6-methyl-1,4-diazepan-1-yl)butyl)pyrido[2,3-d]pyrimidin-4(3H)-one], the Ki is above 5000 nM in test [1] and above 1000 nM at Human σ1 receptor.

As for `CCC[C@@H](c1nc2ncc(F)cc2c(=O)n1CC)N1CCCN(C)CC1` [Example 202, (S)-3-ethyl-6-fluoro-2-(1-(4-methyl-1,4-diazepan-1-yl)butyl)pyrido[2,3-d]pyrimidin-4(3H)-one], the inhibition constant Ki in test [1] was above 5000 nM; on Human σ1 receptor it was above 1000 nM.

As for `CCCC(c1nc2ccc(O)cc2c(=O)n1CC)N1CCCN(C)CC1` (stereo not shown) [Example 203, 3-Ethyl-6-hydroxy-2-(1-(4-methyl-1,4-diazepan-1-yl)butyl)quinazolin-4(3H)-one], the inhibition constant (Ki) in test [1] is below 500 nM; at Human σ1 receptor it was above 1000 nM.

On to `CCCC(c1nc2ccc(-c3ccccc3)cc2c(=O)n1CC)N1CCCN(C)CC1` (stereo not shown) [Example 204, 3-Ethyl-2-(1-(4-methyl-1,4-diazepan-1-yl)butyl)-6-phenylquinazolin-4(3H)-one], for which the Ki in test [1] was below 500 nM; on Human σ1 receptor, above 1000 nM.

Regarding `CCCC(c1nc2ccc(CC)cc2c(=O)n1CC)N1CCCN(C)CC1` (stereo not shown) [Example 205, 3,6-diethyl-2-(1-(4-methyl-1,4-diazepan-1-yl)butyl)quinazolin-4(3H)-one], the results for the Ki (in test [1]; at Human σ1 receptor) were below 500 nM and above 1000 nM, respectively.

`CCCC(c1nc2ccc(NC3CCN(C)CC3)cc2c(=O)n1CC)N1CCCN(C)CC1` (stereo not shown) [Example 206, 3-Ethyl-2-(1-(4-methyl-1,4-diazepan-1-yl)butyl)-6-((1-methylpiperidin-4-yl)amino)quinazolin-4(3H)-one]: the Ki was below 500 nM in test [1] and above 1000 nM at Human σ1 receptor.

For the compound `CCCC(c1nc2ccc(Cc3ccccc3)cc2c(=O)n1CC)N1CCCN(C)CC1` (stereo not shown) [Example 207, 6-Benzyl-3-ethyl-2-(1-(4-methyl-1,4-diazepan-1-yl)butyl)quinazolin-4(3H)-one], the inhibition constant Ki in test [1] is below 500 nM; on Human σ1 receptor it was 500 to 1000 nM.

As to `CCCC(c1nc2ccc(Br)cc2c(=O)n1CC(=O)O)N1CCCN(C)CC1` (stereo not shown) [Example 208, 2-(6-Bromo-2-(1-(4-methyl-1,4-diazepan-1-yl)butyl)-4-oxoquinazolin-3(4H)-yl)acetic acid], the figures for the Ki (in test [1]; at Human σ1 receptor) were above 5000 nM and above 1000 nM, respectively.

In the case of `CCC[C@H](c1nc2ccc(F)cc2c(=O)n1CC)N1CCCN(C)CC1` [Example 209, (R)-3-Ethyl-6-fluoro-2-(1-(4-methyl-1,4-diazepan-1-yl)butyl)quinazolin-4(3H)-one], the Ki (in test [1]; at Human σ1 receptor) was below 500 nM throughout.

In the case of `CCC[C@H](c1nc2ccc(F)cc2c(=O)n1CC)N1CCCN(CC)CC1` [Example 210, (R)-3-ethyl-2-(1-(4-ethyl-1,4-diazepan-1-yl)butyl)-6-fluoroquinazolin-4(3H)-one], the Ki (in test [1]; on Human σ1 receptor) was below 500 nM in each case.

For the compound `CCC[C@H](c1nc2ccc(F)cc2c(=O)n1CCC)N1CCCN(C)CC1` [Example 211, (R)-6-fluoro-2-(1-(4-methyl-1,4-diazepan-1-yl)butyl)-3-propylquinazolin-4(3H)-one], the Ki (in test [1]; at Human σ1 receptor) was below 500 nM throughout.

For the compound `CCC[C@H](c1nc2ccc(F)cc2c(=O)n1CCC)N1CCCN(CC)CC1` [Example 212, (R)-2-(1-(4-ethyl-1,4-diazepan-1-yl)butyl)-6-fluoro-3-propylquinazolin-4(3H)-one], the inhibition constant Ki (in test [1]; at Human σ1 receptor) was below 500 nM each time.

For `CCC[C@H](c1nc2ccc(I)cc2c(=O)n1CC)N1CCCN(C)CC1` [Example 213, (R)-3-ethyl-6-iodo-2-(1-(4-methyl-1,4-diazepan-1-yl)butyl)quinazolin-4(3H)-one], the figures for the Ki (in test [1]; at Human σ1 receptor) were below 500 nM and 500 to 1000 nM, respectively.

For `CCC[C@H](c1nc2ccc(F)cc2c(=O)n1CC(C)C)N1CCCN(C)CC1` [Example 214, (R)-6-fluoro-3-isobutyl-2-(1-(4-methyl-1,4-diazepan-1-yl)butyl)quinazolin-4(3H)-one], the Ki (in test [1]; at Human σ1 receptor) was below 500 nM in each case.

For the compound `CCC[C@H](c1nc2ccc(F)cc2c(=O)n1CC(C)C)N1CCCN(CC)CC1` [Example 215, (R)-2-(1-(4-ethyl-1,4-diazepan-1-yl)butyl)-6-fluoro-3-isobutylquinazolin-4(3H)-one], the Ki (in test [1]; on Human σ1 receptor) was below 500 nM each time.

As for `CCC[C@H](c1nc2ccc(F)cc2c(=O)n1C)N1CCCN(C)CC1` [Example 216, (R)-6-fluoro-3-methyl-2-(1-(4-methyl-1,4-diazepan-1-yl)butyl)quinazolin-4(3H)-one], the Ki was 500 to 5000 nM in test [1] and below 500 nM on Human σ1 receptor.

`CCC[C@H](c1nc2ccc(F)cc2c(=O)n1C)N1CCCN(CC)CC1` [Example 217, (R)-2-(1-(4-ethyl-1,4-diazepan-1-yl)butyl)-6-fluoro-3-methylquinazolin-4(3H)-one]: the figures for the Ki (in test [1]; at Human σ1 receptor) were above 5000 nM and below 500 nM, respectively.

`CCC[C@H](c1nc2ccc(F)cc2c(=O)n1CC1CC1)N1CCCN(CC)CC1` [Example 218, (R)-3-(cyclopropylmethyl)-2-(1-(4-ethyl-1,4-diazepan-1-yl)butyl)-6-fluoroquinazolin-4(3H)-one]: the Ki (in test [1]; on Human σ1 receptor) was below 500 nM throughout.

With `CCC[C@H](c1nc2ccc(F)cc2c(=O)n1CC1CC1)N1CCCN(C)CC1` [Example 219, (R)-3-(cyclopropylmethyl)-6-fluoro-2-(1-(4-methyl-1,4-diazepan-1-yl)butyl)quinazolin-4(3H)-one], the Ki (in test [1]; at Human σ1 receptor) was below 500 nM each time.

`CCC[C@H](c1nc2cc(F)c(OC)cc2c(=O)n1CC)N1CCCN(C)CC1` [Example 220, (R)-3-ethyl-7-fluoro-6-methoxy-2-(1-(4-methyl-1,4-diazepan-1-yl)butyl)quinazolin-4(3H)-one]: the Ki in test [1] was below 500 nM; on Human σ1 receptor, above 1000 nM.

Take `CCC[C@H](c1nc2ccc(F)cc2c(=O)n1CCC(C)C)N1CCCN(CC)CC1` [Example 221, (R)-2-(1-(4-ethyl-1,4-diazepan-1-yl)butyl)-6-fluoro-3-isopentylquinazolin-4(3H)-one]: the Ki in test [1] was above 5000 nM; on Human σ1 receptor, below 500 nM.

In the case of `CCC[C@H](c1nc2ccc(F)cc2c(=O)n1C(C)C)N1CCCN(C)CC1` [Example 222, (R)-6-fluoro-3-isopropyl-2-(1-(4-methyl-1,4-diazepan-1-yl)butyl)quinazolin-4(3H)-one], the Ki in test [1] is above 5000 nM; at Human σ1 receptor it was 500 to 1000 nM.

As to `CCC[C@H](c1nc2ccc(F)cc2c(=O)n1C(C)C)N1CCCN(CC)CC1` [Example 223, (R)-2-(1-(4-ethyl-1,4-diazepan-1-yl)butyl)-6-fluoro-3-isopropylquinazolin-4(3H)-one], the Ki is above 5000 nM in test [1] and below 500 nM on Human σ1 receptor.

For the compound `CCCCn1c([C@@H](CCC)N2CCCN(C)CC2)nc2ccc(F)cc2c1=O` [Example 224, (R)-3-butyl-6-fluoro-2-(1-(4-methyl-1,4-diazepan-1-yl)butyl)quinazolin-4(3H)-one], the Ki (in test [1]; at Human σ1 receptor) was below 500 nM each time.

Consider `CCCCn1c([C@@H](CCC)N2CCCN(CC)CC2)nc2ccc(F)cc2c1=O` [Example 225, (R)-3-butyl-2-(1-(4-ethyl-1,4-diazepan-1-yl)butyl)-6-fluoroquinazolin-4(3H)-one], for which the Ki (in test [1]; at Human σ1 receptor) was below 500 nM in each case.

For the compound `CCC[C@H](c1nc2ccc(F)cc2c(=O)n1CCC(C)C)N1CCCN(C)CC1` [Example 226, (R)-6-fluoro-3-isopentyl-2-(1-(4-methyl-1,4-diazepan-1-yl)butyl)quinazolin-4(3H)-one], the results for the Ki (in test [1]; at Human σ1 receptor) were above 5000 nM and below 500 nM, respectively.

Regarding `CCC[C@H](c1nc2ccc(F)cc2c(=O)n1Cc1ccoc1)N1CCCN(C)CC1` [Example 227], the Ki (in test [1]; on Human σ1 receptor) was below 500 nM each time.
